# Measurements published in ChEMBL document CHEMBL5257135, “Synthesis of Artesunic Acid-Coumarin Hybrids as Potential Antimelanoma Agents” (ACS Med Chem Lett, 2023).
# The source made the active and inactive calls. The calls are words filed in the database; no cut-off is given here.
# Key:
# SK-MEL-28 [1] = experiment: Anticancer activity against human SK-MEL-28 cells assessed as reduction in cell viability incubated for 24 hrs by MTT assay; format: functional, cell-based; conditions: SK-MEL-28, 24 h
# SK-MEL3 [2] = experiment: Anticancer activity against human SK-MEL3 cells assessed as reduction in cell viability incubated for 24 hrs by MTT assay; format: functional, cell-based; conditions: SK-MEL3, 24 h
# [3] = Selectivity index, ratio of IC50 for cytotoxicity against human C3PV cells to IC50 for anticancer activity against human SK-MEL3 cells; format: toxicity, cell-based; conditions: C3PV cells and SK-MEL3 cells, read-out: Ratio IC50
# [4] = Cytotoxicity against human C3PV cells assessed as reduction in cell viability incubated for 24 hrs by MTT assay; format: toxicity, cell-based; conditions: for IC50 at 24 h: human, C3PV cells; for IC50: c3pv
# [5] = Cytotoxicity against human C3PV cells assessed as reduction in cell proliferation at 0.015 uM to incubated for 24 hrs by trypan blue exclusion assay; format: toxicity, cell-based
# SK-MEL-28 [6] = experiment: Antiproliferative activity against human SK-MEL-28 cells assessed as reduction in cell proliferation at 0.015 uM to incubated for 24 hrs by trypan blue exclusion assay; format: functional, cell-based
# SK-MEL-28 [7] = experiment: Induction of apoptosis in human SK-MEL-28 cells assessed as dead cells at 0.015 uM by fluorescein diacetate, propidium iodide, and Hoechst staining based confocal microscopy; format: functional, cell-based
# SK-MEL3 [8] = experiment: Induction of apoptosis in human SK-MEL3 cells assessed as dead cells at 0.015 uM by fluorescein diacetate, propidium iodide, and Hoechst staining based confocal microscopy; format: functional, cell-based
# C3PV [9] = experiment: Induction of apoptosis in human C3PV cells assessed as dead cells at 0.015 uM by fluorescein diacetate, propidium iodide, and Hoechst staining based confocal microscopy; format: functional, cell-based
# SK-MEL3 [10] = experiment: Antiproliferative activity against human SK-MEL3 cells assessed as reduction in cell proliferation at 0.015 uM to incubated for 24 hrs by trypan blue exclusion assay; format: functional, cell-based
# SK-MEL3 [11] = experiment: Anticancer activity against human SK-MEL3 cells assessed as reduction in cell viability incubated for 24 hrs in presence of deferoxamine by MTT assay; format: functional, cell-based; conditions: SK-MEL3, 24 h
# [12] = Drug localization in human SK-MEL3 cell nucleus incubated for 24 hrs by propidium iodide staining based Confocal microscopy; format: ADME, subcellular; conditions: sk-mel3, 24 h
# SK-MEL-28 [13] = experiment: Induction of apoptosis in human SK-MEL-28 cells assessed as dead cells at 0.05 uM by fluorescein diacetate, propidium iodide, and Hoechst staining based confocal microscopy; format: functional, cell-based
# [14] = Cytotoxicity against human C3PV cells assessed as reduction in cell proliferation at 0.05 uM to incubated for 24 hrs by trypan blue exclusion assay; format: toxicity, cell-based
# C3PV [15] = experiment: Induction of apoptosis in human C3PV cells assessed as dead cells at 0.05 uM by fluorescein diacetate, propidium iodide, and Hoechst staining based confocal microscopy; format: functional, cell-based
# SK-MEL3 [16] = experiment: Antiproliferative activity against human SK-MEL3 cells assessed as reduction in cell proliferation at 0.05 uM to incubated for 24 hrs by trypan blue exclusion assay; format: functional, cell-based
# SK-MEL-28 [17] = experiment: Antiproliferative activity against human SK-MEL-28 cells assessed as reduction in cell proliferation at 0.05 uM to incubated for 24 hrs by trypan blue exclusion assay; format: functional, cell-based
# SK-MEL3 [18] = experiment: Induction of apoptosis in human SK-MEL3 cells assessed as dead cells at 0.05 uM by fluorescein diacetate, propidium iodide, and Hoechst staining based confocal microscopy; format: functional, cell-based
# SK-MEL3 [19] = experiment: Anticancer activity against human SK-MEL3 cells assessed as reduction in cell viability incubated for 24 hrs in presence of Artesunic acid by MTT assay; format: functional, cell-based; conditions: SK-MEL3, 24 h
SMILES,IC50 (SK-MEL-28 [1]) [µM],IC50 (SK-MEL3 [2]) [µM],selectivity ratio [3],IC50 at 24 h [4] [µM],also measured
O=c1oc2ccccc2cc1O [3-HYDROXYCOUMARIN],1.2,6.8,1.8,12.5,–
C[C@H]1[C@H](OC(=O)CCC(=O)Oc2ccc3oc(=O)ccc3c2)O[C@@H]2C[C@]3(C)CC[C@H]4[C@H](C)CC[C@@H]1[C@@]24OO3,576,0.015,8810,132,Activity [5]: Non-Toxic; Activity (SK-MEL-28 [6]): inactive; Activity (SK-MEL-28 [7]): inactive; Activity (SK-MEL3 [8]): Active; Activity (C3PV [9]): inactive; Activity (SK-MEL3 [10]): Active; IC50 (SK-MEL3 [11]): 0.001 µM
CC(=O)O[C@H]1C(=O)[C@@]2(C)[C@H]([C@H](OC(=O)c3ccccc3)[C@]3(O)C[C@H](OC(=O)[C@H](O)[C@@H](NC(=O)c4ccccc4)c4ccccc4)C(C)=C1C3(C)C)[C@]1(OC(C)=O)CO[C@@H]1C[C@@H]2O [PACLITAXEL],1.07,4.73,16.7,78.9,–
C[C@H]1[C@H](OC(=O)CCC(=O)Oc2cc(=O)oc3ccccc23)O[C@@H]2C[C@]3(C)CC[C@H]4[C@H](C)CC[C@@H]1[C@@]24OO3,72.8,2.7,119,321,–
Cc1cc(=O)oc2cc(OC(=O)CCC(=O)O[C@@H]3O[C@@H]4C[C@]5(C)CC[C@H]6[C@H](C)CC[C@@H]([C@H]3C)[C@@]46OO5)ccc12,13.5,2.6,0.25,0.66,–
C[C@H]1[C@H](OC(=O)CCC(=O)Oc2cc3ccccc3oc2=O)O[C@@H]2C[C@]3(C)CC[C@H]4[C@H](C)CC[C@@H]1[C@@]24OO3,38,1,5.64,5.64,–
C[C@H]1[C@H](OC(=O)CCC(=O)Nc2ccc3c(C(F)(F)F)cc(=O)oc3c2)O[C@@H]2C[C@]3(C)CC[C@H]4[C@H](C)CC[C@@H]1[C@@]24OO3,1090,1.3,0.16,0.21,Drug uptake [12]: Active
O=c1cc(C(F)(F)F)c2ccc(O)cc2o1,1.1,0.58,4.3,2.5,–
COc1cc2ccc(=O)oc2cc1O [SCOPOLETIN],3.43,1.5,1.1,1.6,–
Cc1cc(=O)oc2cc(O)ccc12 [HYMECROMONE],0.58,1.6,4.37,7,–
C[C@H]1[C@H](OC(=O)CCC(=O)Oc2cc3ccc(=O)oc3cc2O)O[C@@H]2C[C@]3(C)CC[C@H]4[C@H](C)CC[C@@H]1[C@@]24OO3,97.9,1.9,361,–,IC50 [4]: 686 µM
C[C@H]1[C@H](OC(=O)CCC(=O)Oc2ccc3ccc(=O)oc3c2)O[C@@H]2C[C@]3(C)CC[C@H]4[C@H](C)CC[C@@H]1[C@@]24OO3,2.2,0.05,4320,216,Activity (SK-MEL-28 [13]): Active; Activity [14]: Non-Toxic; Activity (C3PV [15]): inactive; Activity (SK-MEL3 [16]): Active; Activity (SK-MEL-28 [17]): inactive; Activity (SK-MEL3 [18]): Active; IC50 (SK-MEL3 [11]): 0.118 µM
C[C@H]1[C@H](OC(=O)CCC(=O)Oc2ccc3c(C(F)(F)F)cc(=O)oc3c2)O[C@@H]2C[C@]3(C)CC[C@H]4[C@H](C)CC[C@@H]1[C@@]24OO3,6.84,3.6,294,–,IC50 [4]: 1060 µM
O=c1ccc2cc(O)c(O)cc2o1 [ESCULETIN],0.96,1.7,15.2,25.8,–
O=c1ccc2cc(O)ccc2o1 [6-HYDROXYCOUMARIN],0.45,1.85,1.6,2.95,IC50 (SK-MEL3 [19]): 1.14 µM
O=c1cc(O)c2ccccc2o1 [4-HYDROXYCOUMARINS],1.3,2.1,0.29,0.6,–
Nc1ccc2c(C(F)(F)F)cc(=O)oc2c1,0.98,0.93,29.4,27.4,Drug uptake [12]: Active
COc1cc2ccc(=O)oc2cc1OC(=O)CCC(=O)O[C@@H]1O[C@@H]2C[C@]3(C)CC[C@H]4[C@H](C)CC[C@@H]([C@H]1C)[C@@]24OO3,132,4.1,0.74,3.05,–
O=c1ccc2ccc(O)cc2o1 [UMBELLIFERONE],0.48,2.1,9.9,20.9,IC50 (SK-MEL3 [19]): 1.6 µM
